Tests used:
ABUTH (Velvetleaf) = assay: Postemergence herbicidal evaluation; format: in vivo, Abutilon theophrasti; settings: postemergence
Procedure, shortened: (§1)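 ~2-wk seedlings; postemergence spray, 40 psi; vehicle 1:1 acetone:water + 0.5% Tween 20; rate ≈0.0156–0.500 kg/ha; greenhouse hold; scored 4–5 wk after treatment, 0–9 scale vs control; repeat tests averaged.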

GALAP (Galium) = assay: Preemergence herbicidal evaluation; format: in vivo, Galium aparine; settings: rated 4-5 weeks after treatment, rating scale 0-9
Procedure, shortened: (§2)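 Rating at 4–5 wk post-spray on a 0–9 visual scale vs control. Application: aqueous acetone, ~0.0156–0.500 kg/ha, to soil surface after seeding, preemergence.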

ZEAMX (Corn, Field) = assay: Postemergence herbicidal evaluation; format: in vivo, Zea mays; settings: postemergence
Procedure, shortened: as §1

CYPIR (Rice Flatsedge) = assay: Preemergence weed control under flooded paddy conditions; format: in vivo, Cyperus iria; settings: rated 3-4 weeks after treatment
Procedure, shortened: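 Seeds or propagules sown in top 0.5 cm of silt loam soil, flooded 1.5 to 3 cm above surface throughout. Compound in 50/50 v/v aqueous/acetone pipetted into flood water at about 0.0313 to 0.500 kg/ha. Visual 0-9 rating versus control after three to four weeks in greenhouse.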

SETVI (Foxtail, Green) [1] = assay: Preemergence herbicidal evaluation; format: in vivo, Setaria viridis; settings: rated 4-5 weeks after treatment, rating scale 0-9
Procedure, shortened: as §2

[2] = test system: CHEAL (Lambsquarters, Common); assay: Postemergence herbicidal evaluation; format: in vivo, Chenopodium album; settings: postemergence
Procedure, shortened: as §1

[3] = test system: TRZAWR (Wheat, Winter, cv Riband); assay: Postemergence herbicidal evaluation; format: in vivo, Triticum aestivum; settings: postemergence
Procedure, shortened: as §1

[4] = test system: GLXMAW (Soybean, Williams); assay: Postemergence herbicidal evaluation; format: in vivo, Glycine max, (L.) Merr. cv Williams; settings: postemergence
Procedure, shortened: as §1

SETVI (Foxtail, Green) [5] = assay: Postemergence herbicidal evaluation; format: in vivo, Setaria viridis; settings: postemergence
Procedure, shortened: as §1

AMBEL (Ragweed, Common) = assay: Preemergence herbicidal evaluation; format: in vivo, Ambrosia artemisifolia; settings: rated 4-5 weeks after treatment, rating scale 0-9
Procedure, shortened: as §2

ORYSAT (Rice, Tebonnet) = assay: Postemergence herbicidal evaluation; format: in vivo, Oryza sativa, (L.) Tebonnet; settings: postemergence
Procedure, shortened: as §1

Cn1c(C(F)(F)F)cc(=O)n(-c2cc(N=C3SCC(=O)N3Cc3cccc(C(F)(F)F)c3)c(Cl)cc2F)c1=O [Compound 142, 3-{4-Chloro-2-fluoro-5-{{3-[m-(trifluoromethyl)benzyl]-4-oxo-2-thiazolidinylidene}-amino}phenyl}-1-methyl-6-(trifluoromethyl)-2,4(1H,3H)-pyrimidinedione]
0.0: Preemergence herbicidal rating GALAP (GALAP (Galium); rate 0.0156 kg/ha) | Preemergence herbicidal rating GALAP (GALAP (Galium); rate 0.0313 kg/ha) | Preemergence herbicidal rating GALAP (GALAP (Galium); rate 0.0625 kg/ha) | Preemergence herbicidal rating GALAP (GALAP (Galium); rate 0.1250 kg/ha) | herbicidal effect rating, CYPIR (CYPIR (Rice Flatsedge); 0.0313 kg/ha) | Preemergence herbicidal rating SETVI (SETVI (Foxtail, Green) [1]; rate 0.0156 kg/ha) | Preemergence herbicidal rating SETVI (SETVI (Foxtail, Green) [1]; rate 0.0625 kg/ha) | Preemergence herbicidal rating AMBEL (AMBEL (Ragweed, Common); rate 0.0156 kg/ha) | Preemergence herbicidal rating AMBEL (AMBEL (Ragweed, Common); rate 0.0313 kg/ha)
3.0: herbicidal rating ABUTH (ABUTH (Velvetleaf); rate 0.0156 kg/ha) | herbicidal rating SETVI (SETVI (Foxtail, Green) [5]; rate 0.0625 kg/ha)
1.0: Preemergence herbicidal rating SETVI (SETVI (Foxtail, Green) [1]; rate 0.0313 kg/ha) | herbicidal rating SETVI (SETVI (Foxtail, Green) [5]; rate 0.0313 kg/ha) | Preemergence herbicidal rating AMBEL (AMBEL (Ragweed, Common); rate 0.2500 kg/ha)
5.0: herbicidal rating GLXMAW ([4]; rate 0.0156 kg/ha) | herbicidal rating GLXMAW ([4]; rate 0.0313 kg/ha)
7.0: herbicidal effect rating, CYPIR (CYPIR (Rice Flatsedge); 0.2500 kg/ha) | Preemergence herbicidal rating SETVI (SETVI (Foxtail, Green) [1]; rate 0.2500 kg/ha)
9.0: herbicidal rating ABUTH (ABUTH (Velvetleaf); rate 0.0313 kg/ha) | herbicidal rating ABUTH (ABUTH (Velvetleaf); rate 0.0625 kg/ha) | Preemergence herbicidal rating GALAP (GALAP (Galium); rate 0.2500 kg/ha) | herbicidal rating CHEAL ([2]; rate 0.0313 kg/ha) | herbicidal rating CHEAL ([2]; rate 0.0625 kg/ha)
6.0: herbicidal effect rating, CYPIR (CYPIR (Rice Flatsedge); 0.1250 kg/ha)
1.5: herbicidal rating ORYSAT (ORYSAT (Rice, Tebonnet); rate 0.0313 kg/ha)
4.5: herbicidal rating ZEAMX (ZEAMX (Corn, Field); rate 0.0625 kg/ha)
4.0: herbicidal rating ZEAMX (ZEAMX (Corn, Field); rate 0.0156 kg/ha) | herbicidal rating ZEAMX (ZEAMX (Corn, Field); rate 0.0313 kg/ha) | herbicidal rating CHEAL ([2]; rate 0.0156 kg/ha) | Preemergence herbicidal rating AMBEL (AMBEL (Ragweed, Common); rate 0.0625 kg/ha)
5.5: herbicidal rating GLXMAW ([4]; rate 0.0625 kg/ha)
2.0: herbicidal effect rating, CYPIR (CYPIR (Rice Flatsedge); 0.0625 kg/ha) | Preemergence herbicidal rating SETVI (SETVI (Foxtail, Green) [1]; rate 0.1250 kg/ha) | herbicidal rating SETVI (SETVI (Foxtail, Green) [5]; rate 0.0156 kg/ha) | Preemergence herbicidal rating AMBEL (AMBEL (Ragweed, Common); rate 0.1250 kg/ha) | herbicidal rating ORYSAT (ORYSAT (Rice, Tebonnet); rate 0.0156 kg/ha) | herbicidal rating ORYSAT (ORYSAT (Rice, Tebonnet); rate 0.0625 kg/ha)
2.5: herbicidal rating TRZAWR ([3]; rate 0.0156 kg/ha) | herbicidal rating TRZAWR ([3]; rate 0.0313 kg/ha) | herbicidal rating TRZAWR ([3]; rate 0.0625 kg/ha)
